Where two headings read alike, the source gives them in different places.
Legend:
[1] = tested on: Lactobacillus plantarum LB931; experiment: MIC of antibiotics by E-test; type: cell-based
Description: MIC values of Lactobacillus plantarum LB931 were determined using E-test (Brown et al. J Antimicrob Chemother 1991;27:185-190).

LB931 [2] = experiment: Sensitivity to antibiotic substances by the SIR system; type: cell-based, Lactobacillus plantarum; set-up: key to Indication: S means sensitive; R strands for resistant; details: for Indication / Zone: SIR system
Description: The sensitivity to antibiotic substances was also determined using the SIR system. In table VI below S means sensitive and R strands for resistant.

LB931 [3] = experiment: MIC test for the spermacidal agent Tergitol NP-9; type: cell-based, Lactobacillus plantarum; details: for Cfu/ml LB931: 18 h, 37 °C, inoculated 1.0×10^7 cfu
Description: MIC tests were also carried out for the spermacidal agent Tergitol. LB931 was grown on MRS agar in 5% CO2, 37° C. for 48 h. The bacteria were inoculated in 3 ml MRS broth and incubated for 10 h under the same conditions as previously 1.5% of the culture was reinoculated to 3 ml MRS broth and was incubated under the same conditions for 18 h. NP-9 Tergitol (Sigma, US) Lot 47F0002 was diluted in MRS broth having a temperature of 37° C. (reduced viscosity) to a stock solution of 40%. […] 10 μl bacterial culture was added to each solution. The blank solution was mixed and added to MRS agar plates. The plates were grown in 5% CO2, 37° C. for 48 h for determining the cell density. The rest of the solutions were incubated without mixing in 5% CO2, 37° C. for 18 h. The solution containing 30% and 40% NP-9 were diluted in 37 ° C. MRS broth (reduced viscosity). All solutions were vigorously mixed; diluted in sterile 0.9% NaCl and added to MRS agar plates The plates were incubated in 5% CO2, 37° C. for 48 h for determining cfu/ml.
Inoculated amount of LB931 was 1.0×10^7 .cfu

[4] = Lactiplantibacillus plantarum, LB931, E-test, read-out: MIC

| Molecule | Indication (LB931 [2]) | Zone (LB931 [2]) | further results |
| --- | --- | --- | --- |
| Gentamycin | – | – | MIC ([1]; E-test): 0.25 µg/mL |
| Tri/sulfamethoazole | S | 43 mm | – |
| Tergitol NP-9 | – | – | Cfu/ml LB931 (LB931 [3]; 1% Tergitol NP-9 in MRS broth): 2.5 × 10^9 Cfu/ml; Cfu/ml LB931 (LB931 [3]; 5% Tergitol NP-9 in MRS broth): 2.5 × 10^9 Cfu/ml; Cfu/ml LB931 (LB931 [3]; 10% Tergitol NP-9 in MRS broth): 1.6 × 10^9 Cfu/ml; Cfu/ml LB931 (LB931 [3]; 20% Tergitol NP-9 in MRS broth): 1.4 × 10^9 Cfu/ml; Cfu/ml LB931 (LB931 [3]; 30% Tergitol NP-9 in MRS broth): 1.0 × 10^9 Cfu/ml; Cfu/ml LB931 (LB931 [3]; 40% Tergitol NP-9 in MRS broth): 6.9 × 10^7 Cfu/ml; Survival of LB931 in tergitol NP-9 in words (LB931 [3]; up to 40% tergitol NP-9): survive well |
| NC[C@H]1O[C@H](O[C@H]2[C@H](O)[C@@H](O[C@H]3O[C@H](CO)[C@@H](O)[C@H](N)[C@H]3O)[C@H](N)C[C@@H]2N)[C@H](N)C[C@@H]1O [Tobramycin] | S | 32 mm | – |
| Piperacin/Tazobactam | – | – | MIC ([1]; E-test): 2 µg/mL |
| CO/N=C(\C(=O)N[C@@H]1C(=O)N2C(C(=O)O)=C(COC(N)=O)CS[C@H]12)c1ccco1 [Cefuroxime] | – | – | MIC [1, 4]: 0.38 µg/mL |
| Mecillinam/Ampicillin | S | 41 mm | – |
| CC1(C)S[C@@H]2[C@H](NC(=O)[C@H](N)c3ccccc3)C(=O)N2[C@H]1C(=O)O [Ampicillin] | – | – | MIC [1, 4]: 0.19 µg/mL |
| CC(=O)OCC1=C(C(=O)O)N2C(=O)[C@@H](NC(=O)Cc3cccs3)[C@H]2SC1 [Cefalotin] | S | 22 mm | – |
| CN[C@H](CC(C)C)C(=O)N[C@H]1C(=O)N[C@@H](CC(N)=O)C(=O)N[C@H]2C(=O)N[C@H]3C(=O)N[C@H](C(=O)N[C@H](C(=O)O)c4cc(O)cc(O)c4-c4cc3ccc4O)[C@H](O)c3ccc(c(Cl)c3)Oc3cc2cc(c3O[C@@H]2O[C@H](CO)[C@@H](O)[C@H](O)[C@H]2O[C@H]2C[C@](C)(N)[C@H](O)[C@H](C)O2)Oc2ccc(cc2Cl)[C@H]1O [Vancomycin] | – | – | Sensitivity of LB931 in words [1]: resistant; MIC ([1]; Lactiplantibacillus plantarum, LB931): > 256 µg/mL |
| CO/N=C(\C(=O)N[C@@H]1C(=O)N2C(C(=O)[O-])=C(C[n+]3cccc4c3CCC4)CS[C@H]12)c1csc(N)n1 [Cefipirome] | S | 47 mm | – |
| Cc1onc(-c2ccccc2)c1C(=O)N[C@@H]1C(=O)N2[C@@H]1SC(C)(C)[C@@H]2C(=O)O [Oxacillin] | R | 0 mm | – |
| CCN[C@@H]1C[C@H](N)[C@@H](O[C@H]2OC(CN)=CC[C@H]2N)[C@H](O)[C@H]1O[C@H]1OC[C@](C)(O)[C@H](NC)[C@H]1O [Netilmycin] | R | 0 mm | – |
| CCn1cc(C(=O)O)c(=O)c2ccc(C)nc21 [Nalidixin acid] | R | 0 mm | Sensitivity of LB931 in words (LB931 [2]): resistant |
| C[C@H]1[C@H](NC(=O)/C(=N\OC(C)(C)C(=O)O)c2csc(N)n2)C(=O)N1S(=O)(=O)O [Aztreonam] | R | 0 mm | – |
| NCC[C@H](O)C(=O)N[C@@H]1C[C@H](N)[C@@H](O[C@H]2O[C@H](CN)[C@@H](O)[C@H](O)[C@H]2O)[C@H](O)[C@H]1O[C@H]1O[C@H](CO)[C@@H](O)[C@H](N)[C@H]1O [Amikacin] | S | 30 mm | – |
| COc1cc(Cc2cnc(N)nc2N)cc(OC)c1OC [Trimetoprim] | – | – | MIC ([1]; E-test): 0.016 µg/mL |
| CC1=C(C(=O)O)N2C(=O)[C@@H](NC(=O)[C@H](N)c3ccc(O)cc3)[C@H]2SC1 [Cefadroxil] | S | 24 mm | – |
| CCn1cc(C(=O)O)c(=O)c2cc(F)c(N3CCNCC3)cc21 [Norfloxacin] | R | 0 mm | Sensitivity of LB931 in words (LB931 [2]): resistant |
| CC(C)(O/N=C(\C(=O)N[C@@H]1C(=O)N2C(C(=O)[O-])=C(C[n+]3ccccc3)CS[C@H]12)c1csc(N)n1)C(=O)O [Ceftazidime] | S | 35 mm | – |
| CC[C@H]1OC(=O)[C@H](C)[C@@H](O[C@H]2C[C@@](C)(OC)[C@@H](O)[C@H](C)O2)[C@H](C)[C@@H](O[C@@H]2O[C@H](C)C[C@H](N(C)C)[C@H]2O)[C@](C)(O)C[C@@H](C)C(=O)[C@H](C)[C@@H](O)[C@]1(C)O [Erythromycin] | – | – | MIC [1, 4]: 0.25 µg/mL |
| CC1(C)S[C@@H]2[C@H](/N=C/N3CCCCCC3)C(=O)N2[C@H]1C(=O)O [Mecillinam] | R | 0 mm | – |
| O=C1CN(/N=C/c2ccc([N+](=O)[O-])o2)C(=O)N1 [Nitrofuantin] | S | 36 mm | – |
| C[C@@H](O)[C@H]1C(=O)N2C(C(=O)O)=C(SCCN=CN)C[C@H]12 [Imipenem] | – | – | MIC [1, 4]: 0.016 µg/mL |
| CO/N=C(\C(=O)N[C@@H]1C(=O)N2C(C(=O)O)=C(COC(C)=O)CS[C@H]12)c1csc(N)n1 [Cefotaxime] | – | – | MIC [1, 4]: 0.094 µg/mL |
| CN(C)[C@@H]1C(=O)C(C(N)=O)=C(O)[C@@]2(O)C(=O)C3=C(O)c4c(O)cccc4[C@@](C)(O)[C@H]3C[C@@H]12 [Tetracyclin] | – | – | MIC ([1]; E-test): 2 µg/mL |
| CC1(C)S[C@@H]2[C@H](NC(=O)Cc3ccccc3)C(=O)N2[C@H]1C(=O)O [Benzylpenicillin] | – | – | MIC [1, 4]: 0.5 µg/mL |
| Cc1ncc([N+](=O)[O-])n1CCO [Metronidazole] | – | – | MIC [1, 4]: > 32 µg/mL |
| CCC[C@@H]1C[C@@H](C(=O)N[C@@H]([C@H]2O[C@H](SC)[C@H](O)[C@@H](O)[C@H]2O)[C@H](C)Cl)N(C)C1 [Clindamycin] | S | 35 mm | – |

— US6761885B1, “Strain of Lactobacillus plantarum and uses thereof” (SCA Hygiene Products AB, priority 1998, dated 2004)
